{"source": "patent US7381521B2", "about": "“Anti-pathogenic composition useful in blood preservation” (Altachem Pharma Ltd., priority 2001, dated 2008)", "key": {"AgHBs": {"system": "AgHBs", "assay": "In vitro degradation of the antigen of hepatitis B virus (AgHBs), virocide + human serum of a hepatitis B patient", "assay_type": "biochemical", "conditions": "Bardac 0.2%", "source_text": "Action on In Vitro Degradation of the Antigen of Hepatitis B Virus (AgHBs) of the Hepatitis B Virus: Virocide+Human Serum Taken from a Patient with Hepatitis B ( 1/1000th)"}, "[1]": {"system": "herpes virus Hominis type 1, strain Bey (HSV1)", "assay": "Immediate virocidal action, zone-forming units on vero cells", "assay_type": "cell-based", "conditions": "day 4, three culture dishes"}, "spermatozoids": {"system": "spermatozoids", "assay": "Spermicidal action, vitality by eosine-nigrosine, 100 spermatozoids examined", "assay_type": "cell-based, human (healthy volunteers)", "set-up": "key: living (colourless) cells counted among 100 spermatozoids examined", "experimental": "The various samples of sperm (one drop of sperm per sample) are obtained from healthy volunteers.\nOne drop of sperm is treated by eosine-nigrosine. A smear is then prepared and 100 spermatozoids examined with a microscope. The dead cells are coloured red, either totally or partially. The living cells are colourless.\nThe substances studied were Bardac® and chlorohexidine digluconate, tested alone and in association in accordance with the invention. The various stages of the procedure are set out in Tables XV to XVII.\nThe maximum contact time of the various substances and of the sperm was confined to 3 minutes in order to guarantee the effectiveness of the method under the conditions of use. The concentration of the active solutions in the sperm was limited to 10% in order to reduce the risks of toxicity of the products in respect of the mucosa."}}}
{"smiles": "CCCCCCCCCC[N+](C)(C)CCCCCCCCCC.[Cl-]", "note": "[Bardac ®, didecyl dimethyl ammonium chloride]", "values": [{"measurement": "Residual AgHBs (ratio)", "setting": "AgHBs", "value": 1.35}, {"measurement": "Number of zone-forming units per milliliter of virus diluted to 10^−4", "setting": "[1]; Bardac 0.02%", "value": "30/125/45"}, {"measurement": "Number of zone-forming units per milliliter of virus diluted to 10^−4", "setting": "[1]; Bardac, concentration not given, second series (control virus at 10^−6)", "value": "26/17/20"}, {"measurement": "vitality (living spermatozoids)", "setting": "spermatozoids; Bardac solution 0.4%, contact 1 min, 5% in the sperm", "value": "10.7 ± 7.6"}, {"measurement": "vitality (living spermatozoids)", "setting": "spermatozoids; Bardac solution 0.4%, contact 1 min, 10% in the sperm", "value": "5 ± 6.4"}, {"measurement": "vitality (living spermatozoids)", "setting": "spermatozoids; Bardac solution 0.4%, contact 3 min, 5% in the sperm", "value": "0.8 ± 1.2"}, {"measurement": "vitality (living spermatozoids)", "setting": "spermatozoids; Bardac solution 0.4%, contact 3 min, 10% in the sperm", "value": "0.8 ± 1"}, {"measurement": "vitality (living spermatozoids)", "setting": "spermatozoids; Bardac solution 0.6%, contact 1 min, 5% in the sperm", "value": "10.5 ± 9.7"}, {"measurement": "vitality (living spermatozoids)", "setting": "spermatozoids; Bardac solution 0.6%, contact 1 min, 10% in the sperm", "value": "9.2 ± 12.9"}, {"measurement": "vitality (living spermatozoids)", "setting": "spermatozoids; Bardac solution 0.6%, contact 3 min, 5% in the sperm", "value": "2.2 ± 4.5"}, {"measurement": "vitality (living spermatozoids)", "setting": "spermatozoids; Bardac solution 0.6%, contact 3 min, 10% in the sperm", "value": "0.4 ± 0.9"}, {"measurement": "vitality (living spermatozoids)", "setting": "spermatozoids; Bardac solution 0.8%, contact 1 min, 5% in the sperm", "value": "9.7 ± 10.2"}, {"measurement": "vitality (living spermatozoids)", "setting": "spermatozoids; Bardac solution 0.8%, contact 1 min, 10% in the sperm", "value": "1.8 ± 2.5"}, {"measurement": "vitality (living spermatozoids)", "setting": "spermatozoids; Bardac solution 0.8%, contact 3 min, 5% in the sperm", "value": 0}, {"measurement": "vitality (living spermatozoids)", "setting": "spermatozoids; Bardac solution 0.8%, contact 3 min, 10% in the sperm", "value": 0}, {"measurement": "vitality (living spermatozoids)", "setting": "spermatozoids; Bardac solution 1%, contact 1 min, 5% in the sperm", "value": 0}, {"measurement": "vitality (living spermatozoids)", "setting": "spermatozoids; Bardac solution 1%, contact 1 min, 10% in the sperm", "value": 0}, {"measurement": "vitality (living spermatozoids)", "setting": "spermatozoids; Bardac solution 1%, contact 3 min, 5% in the sperm", "value": 0}, {"measurement": "vitality (living spermatozoids)", "setting": "spermatozoids; Bardac solution 1%, contact 3 min, 10% in the sperm", "value": 0}]}
{"smiles": "[H]/N=C(\\N/C(=N/[H])NCCCCCCNC(=N)NC(=N)Nc1ccc(Cl)cc1)Nc1ccc(Cl)cc1", "note": "[Chlorhexidine, chlorohexidine digluconate, reference compound]", "values": [{"measurement": "vitality (living spermatozoids)", "setting": "spermatozoids; Chlorohexidine digluconate solution 0.5%, contact 1 min, 5% in the sperm", "value": "77 ± 10.8"}, {"measurement": "vitality (living spermatozoids)", "setting": "spermatozoids; Chlorohexidine digluconate solution 0.5%, contact 1 min, 10% in the sperm", "value": "77.2 ± 5.6"}, {"measurement": "vitality (living spermatozoids)", "setting": "spermatozoids; Chlorohexidine digluconate solution 0.5%, contact 3 min, 5% in the sperm", "value": "78 ± 5.7"}, {"measurement": "vitality (living spermatozoids)", "setting": "spermatozoids; Chlorohexidine digluconate solution 0.5%, contact 3 min, 10% in the sperm", "value": "75.5 ± 4.8"}]}
